IC50 and viability, T/C data for six molecules are collected here from PubChem BioAssay AID1963873 (Molecular Pharmacology Branch, DTP, NCI, 2024).

Where “and” joins values, the source holds several entries; their conditions need not be identical. Equal values may be shown once. Bounds are passed on as bounds.

For this experiment, the system named is 276233-004-R-J1-PDC KRAS spheroids with HUVEC/MSC, viability. Description: Anticancer human tumor 276233-004-R-J1-PDC patient-derived colon adenocarcinoma cell line growth inhibition [KRAS2]. The following applies: for viability, T/C: stronger effect = lower value. An outline of the steps:
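KRAS-mutant tumor cells were grown as spheroids with HUVEC endothelial cells and human MSCs as stroma. Targeted agents were tested alone and with KRAS pathway inhibitors. Doses started at or near clinical Cmax, or 10 microM, descending half-log.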

The mark [1] stands for this setting: curve of first compound, second compound 0.1 µM.
[2] abbreviates: curve of first compound, second compound 0.316 µM.
Where [3] appears, read: curve of first compound, second compound 1 µM.
The mark [4] stands for this setting: curve of first compound, second compound 3.16 µM.
[5] abbreviates: second compound 0.1 µM, first compound 0.00316 µM.
The mark [6] stands for this setting: second compound 0.1 µM, first compound 0.01 µM.
[7] abbreviates: second compound 0.1 µM, first compound 0.0316 µM.
The mark [8] stands for this setting: second compound 0.1 µM, first compound 0.1 µM.
Where [9] appears, read: second compound 0.1 µM, first compound 0.316 µM.
Where [10] appears, read: second compound 0.1 µM, first compound 1 µM.
[11] abbreviates: second compound 0.316 µM, first compound 0.00316 µM.
Where [12] appears, read: second compound 0.316 µM, first compound 0.01 µM.
The mark [13] stands for this setting: second compound 0.316 µM, first compound 0.0316 µM.
Where [14] appears, read: second compound 0.316 µM, first compound 0.1 µM.
[15] abbreviates: second compound 0.316 µM, first compound 0.316 µM.
The mark [16] stands for this setting: second compound 0.316 µM, first compound 1 µM.
Where [17] appears, read: second compound 1 µM, first compound 0.00316 µM.
Where [18] appears, read: second compound 1 µM, first compound 0.01 µM.
Setting [19] is: second compound 1 µM, first compound 0.0316 µM.
Setting [20] is: second compound 1 µM, first compound 0.1 µM.
[21] abbreviates: second compound 1 µM, first compound 0.316 µM.
The mark [22] stands for this setting: second compound 1 µM, first compound 1 µM.
Where [23] appears, read: second compound 3.16 µM, first compound 0.00316 µM.
Setting [24] is: second compound 3.16 µM, first compound 0.01 µM.
Where [25] appears, read: second compound 3.16 µM, first compound 0.0316 µM.
Setting [26] is: second compound 3.16 µM, first compound 0.1 µM.
Where [27] appears, read: second compound 3.16 µM, first compound 0.316 µM.
Setting [28] is: second compound 3.16 µM, first compound 1 µM.
The mark [29] stands for this setting: curve of first compound, second compound 10 µM.
Setting [30] is: second compound 10 µM, first compound 0.0316 µM.
[31] abbreviates: compound alone, run of 07/19/2021.
Setting [32] is: compound alone, run of 07/26/2021.
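Also: cells exposed to agents for seven days before viability read.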
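For viability, T/C in this document: 100% = DMSO vehicle control wells and lower values mean fewer viable cells.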

The IC50 is the midpoint of a concentration-inhibition curve. In general, viability, T/C refers to the result in the treated group divided by that in the control group, in per cent. As to `CCN1CCN(Cc2ccc(Nc3ncc(F)c(-c4cc(F)c5nc(C)n(C(C)C)c5c4)n3)nc2)CC1` + C=CC(=O)N1CCN(c2nc(OCC3CCCN3C)nc3c2CCN(c2cccc4cccc(C)c24)C3)CC1CC#N, the IC50 (curve of first compound, second compound 0.0316 µM) was over 1000 nM; the IC50 under setting [1] was over 1000 nM; the IC50 under setting [2] was over 1000 nM; the IC50 under setting [3] was over 1000 nM; the IC50 under setting [4] was 59.6 nM. The viability, T/C is 102% (second compound 0.0316 µM, first compound 0.00316 µM); 87% (second compound 0.0316 µM, first compound 0.01 µM); 87.1% (second compound 0.0316 µM, first compound 0.0316 µM); 69.2% (second compound 0.0316 µM, first compound 0.1 µM); 95.5% (second compound 0.0316 µM, first compound 0.316 µM); 112% (second compound 0.0316 µM, first compound 1 µM). Further, the viability, T/C under setting [5] was 109%; the viability, T/C under setting [6] is 86.4%; the viability, T/C under setting [7] was 86%; the viability, T/C under setting [8] was 81%; the viability, T/C under setting [9] is 97%; the viability, T/C under setting [10] is 96.4%. For the same molecule, the viability, T/C runs as follows: under setting [11], 95.1%; under setting [12], 83.7%; under setting [13], 77.4%; under setting [14], 86%; under setting [15], 78%; under setting [16], 90.7%. Further, the viability, T/C was 81.4% under setting [17]; 83.7% under setting [18]; 96.5% under setting [19]; 87.4% under setting [20]; 66.2% under setting [21]; 110% under setting [22]. The viability, T/C was 56.5% under setting [23]; 65.8% under setting [24]; 65.9% under setting [25]; 39.6% under setting [26]; 43.5% under setting [27]; 26.5% under setting [28].
As to `CCNC(=O)CC1N=C(c2ccc(Cl)cc2)c2cc(OC)ccc2-n2c(C)nnc21` (stereo unspecified) + C=CC(=O)N1CCN(c2nc(=O)n(-c3c(C)ccnc3C(C)C)c3nc(-c4c(O)cccc4F)c(F)cc23)C(C)C1, the IC50 is over 10000 nM under setting [1]; over 10000 nM under setting [2]; over 10000 nM under setting [3]; over 10000 nM under setting [4]; over 10000 nM under setting [29]. For the same molecule, the viability, T/C reads like this: under setting [7], 102%; under setting [8], 86.5%; under setting [9], 78.5%; under setting [10], 76.6%; (second compound 0.1 µM, first compound 3.16 µM) 62.6%; (second compound 0.1 µM, first compound 10 µM) 65.4%. Also, the viability, T/C is, setting by setting: under setting [13], 111%; under setting [14], 92.8%; under setting [15], 72%; under setting [16], 81.5%; (second compound 0.316 µM, first compound 3.16 µM) 69.7%; (second compound 0.316 µM, first compound 10 µM) 79.3%. Further, the viability, T/C is 87.5% under setting [19]; 101% under setting [20]; 72.7% under setting [21]; 63.3% under setting [22]; 81% (second compound 1 µM, first compound 3.16 µM); 71.5% (second compound 1 µM, first compound 10 µM). Further, the viability, T/C was 84.4% under setting [25]; 87.1% under setting [26]; 108% under setting [27]; 49.4% under setting [28]; 83.2% (second compound 3.16 µM, first compound 3.16 µM); 69.3% (second compound 3.16 µM, first compound 10 µM). Besides, the viability, T/C was 79.6% under setting [30]; 63.3% (second compound 10 µM, first compound 0.1 µM); 66.2% (second compound 10 µM, first compound 0.316 µM); 61.3% (second compound 10 µM, first compound 1 µM); 74.7% (second compound 10 µM, first compound 3.16 µM); 54.2% (second compound 10 µM, first compound 10 µM).
`C=CC(=O)N1CCN(c2nc(=O)n(-c3c(C)ccnc3C(C)C)c3nc(-c4c(O)cccc4F)c(F)cc23)C(C)C1` (stereo unspecified): the IC50 is, setting by setting: (compound alone, run of 07/12/2021) over 10000 nM; under setting [31], over 10000 nM; under setting [32], over 10000 nM.
With `CC(=O)Nc1cccc(-n2c(=O)n(C3CC3)c(=O)c3c(Nc4ccc(I)cc4F)n(C)c(=O)c(C)c32)c1` + COc1cc2nc(C)nc(NC(C)c3cc(N)cc(C(F)(F)F)c3)c2cc1OC1CCOC1, the IC50 was 5.58 nM under setting [1]; 4.05 nM under setting [2]; 2.77 nM under setting [3]; 1.8 nM under setting [4]; under 0.1 nM under setting [29]. In addition, the viability, T/C (second compound 0.1 µM, first compound 0.0001 µM) is 86%; the viability, T/C (second compound 0.1 µM, first compound 0.000316 µM) was 88.2%; the viability, T/C (second compound 0.1 µM, first compound 0.001 µM) was 75.2%; the viability, T/C under setting [5] is 63%; the viability, T/C under setting [6] was 37.4%; the viability, T/C under setting [7] is 17%. Further, the viability, T/C by setting is: (second compound 0.316 µM, first compound 0.0001 µM) 88.8%; (second compound 0.316 µM, first compound 0.000316 µM) 79.2%; (second compound 0.316 µM, first compound 0.001 µM) 65.1%; under setting [11], 54.3%; under setting [12], 38.4%; under setting [13], 23%. Besides, the viability, T/C (second compound 1 µM, first compound 0.0001 µM) is 95.2%; the viability, T/C (second compound 1 µM, first compound 0.000316 µM) was 72.6%; the viability, T/C (second compound 1 µM, first compound 0.001 µM) is 69.7%; the viability, T/C under setting [17] is 44.7%; the viability, T/C under setting [18] is 34.3%; the viability, T/C under setting [19] was 12.3%. The viability, T/C by setting is: (second compound 3.16 µM, first compound 0.0001 µM) 80.2%; (second compound 3.16 µM, first compound 0.000316 µM) 76.4%; (second compound 3.16 µM, first compound 0.001 µM) 59.4%; under setting [23], 39.7%; under setting [24], 21.6%; under setting [25], 8.22%. In addition, the viability, T/C runs as follows: (second compound 10 µM, first compound 0.0001 µM) 26.6%; (second compound 10 µM, first compound 0.000316 µM) 21.4%; (second compound 10 µM, first compound 0.001 µM) 21.7%; (second compound 10 µM, first compound 0.00316 µM) 14%; (second compound 10 µM, first compound 0.01 µM) 15.2%; under setting [30], 6.73%.
Take `CC1OCC2(CCN(c3cnc(Sc4ccnc(N)c4Cl)c(N)n3)CC2)C1N` (stereo unspecified): the viability, T/C (compound 0.0316 µM) was 83.3% and 88.2% and 102%. In addition, the IC50 under setting [31] was over 10000 nM, the IC50 under setting [32] is over 10000 nM and the IC50 (curve of compound) is over 10000 nM.
With `Cn1ncnc1[C@H]1c2n[nH]c(=O)c3cc(F)cc(c23)N[C@@H]1c1ccc(F)cc1`, the viability, T/C was 96.7% [middle of 5 runs] (compound 0.000316 µM), 101% [middle of 5 runs] (compound 0.001 µM) and 102% [middle of 5 runs] (compound 0.1 µM). Further, the IC50 (curve of compound) is over 100 nM.
